In patent publication US20240343694A1, “PYRIMIDINE DERIVATIVE, METHOD FOR PREPARING SAME, AND PHARMACEUTICAL COMPOSITION FOR PREVENTING OR TREATING CANCER COMPRISING SAME AS ACTIVE INGREDIENT” (KOREA RESERARCH INSTITUTE OF CHEMICAL TECHNOLOGY, priority 2021, published 2024):

Key:
HER2 A775_G776insYVMA = HER2 A775_G776insYVMA (Homo sapiens (Human), UniProt P04626, INS775YVMA); assay: HTRF inhibitory activity against HER2 mutant enzyme; format: biochemical; conditions: recombinant enzyme, 37° C. for 2 hours
Chain of HER2 A775_G776insYVMA (P04626 other isoform, or with tags, fused parts or gaps del 1-675/ins YVMA behind 775 limits assumed): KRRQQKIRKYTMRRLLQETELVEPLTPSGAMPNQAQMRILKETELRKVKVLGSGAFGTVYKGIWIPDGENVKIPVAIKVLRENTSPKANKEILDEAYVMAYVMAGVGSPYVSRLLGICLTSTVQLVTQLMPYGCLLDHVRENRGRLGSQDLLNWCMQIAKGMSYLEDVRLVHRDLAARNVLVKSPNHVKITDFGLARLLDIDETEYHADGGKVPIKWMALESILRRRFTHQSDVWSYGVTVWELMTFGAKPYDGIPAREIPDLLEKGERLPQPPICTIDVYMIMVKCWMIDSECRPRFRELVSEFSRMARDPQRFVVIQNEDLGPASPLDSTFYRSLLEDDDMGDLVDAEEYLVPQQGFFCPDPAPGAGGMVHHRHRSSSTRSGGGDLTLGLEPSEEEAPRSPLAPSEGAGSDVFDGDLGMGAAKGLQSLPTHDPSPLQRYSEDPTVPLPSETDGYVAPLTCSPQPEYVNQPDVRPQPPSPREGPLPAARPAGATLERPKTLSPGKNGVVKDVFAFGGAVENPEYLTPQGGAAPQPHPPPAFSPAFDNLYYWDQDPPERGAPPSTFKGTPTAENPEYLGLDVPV
Outline: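 Recombinant HER2 A775_G776insYVMA preincubated with compound, then […] and biotinylated peptide ([…]) added; 2 h at 37 °C in Tris-HCl pH 7.5 buffer with MgCl2, DTT. HTRF detection (Eu anti-phosphotyrosine/streptavidin-XL665); IC50 from 7 concentrations.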

EGFR A763_Y764insFHEA = EGFR A763_Y764insFHEA (Homo sapiens (Human), UniProt P00533, INS763FHEA); assay: HTRF inhibitory activity against EGFR mutant enzyme (EGFR A763_Y764insFHEA); format: biochemical; conditions: recombinant enzyme, 37° C. for 2 hours
Chain of EGFR A763_Y764insFHEA (P00533 other isoform, or with tags, fused parts or gaps del 1-694/ins FHEA behind 763 limits assumed): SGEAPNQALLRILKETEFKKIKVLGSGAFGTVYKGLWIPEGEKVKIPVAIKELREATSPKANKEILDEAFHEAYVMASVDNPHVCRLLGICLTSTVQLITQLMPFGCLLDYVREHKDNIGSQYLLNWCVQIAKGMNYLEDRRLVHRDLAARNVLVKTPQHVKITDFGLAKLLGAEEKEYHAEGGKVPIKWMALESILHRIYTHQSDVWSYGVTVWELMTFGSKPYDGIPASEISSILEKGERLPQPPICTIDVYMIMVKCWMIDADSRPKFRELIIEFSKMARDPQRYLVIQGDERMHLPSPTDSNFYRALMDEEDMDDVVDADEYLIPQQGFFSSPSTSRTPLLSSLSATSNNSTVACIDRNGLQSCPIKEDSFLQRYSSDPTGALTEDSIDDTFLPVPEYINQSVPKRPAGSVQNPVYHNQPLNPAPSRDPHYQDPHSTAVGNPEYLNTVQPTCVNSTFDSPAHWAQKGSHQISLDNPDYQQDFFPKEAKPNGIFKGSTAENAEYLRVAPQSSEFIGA
Outline: (§1)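 Recombinant EGFR del19 or A763_Y764insFHEA was premixed with compound in 50 mM Tris pH 7.5 with 7.5 mM MgCl2 and 1 mM DTT. ATP (50 mM as printed) and biotin-peptide (0.5 mM) were added and reacted 2 h at 37 °C. The HTRF 665/615 read used streptavidin-XL665 and Eu anti-phosphotyrosine. IC50 was fitted from 7 concentrations.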

[1] = system: Ba/F3 EGFR D770_N771insSVD; assay: Growth inhibition of Ba/F3 EGFR mutant cells (CellTiter-Glo); format: cell-based; conditions: Ba/F3 EGFR-D770-N771ins_SVD, 72 hours
Outline: (§2)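 Ba/F3 cells expressing either EGFR insertion mutant were seeded at 1,000 cells/well and dosed 24 h later at eight concentrations from 0 to 10 μM. After 72 h, viability was read by CellTiter-Glo ATP signal. IC50 (μM) was fitted from the eight-point curves.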

[2] = system: Ba/F3 EGFR V769_D770insASV; assay: as above; format: cell-based; conditions: 72 hours
Outline: as §2

Ba/F3 HER2 G776delinsVC = assay: Growth inhibition of Ba/F3 HER2 mutant cells (CellTiter-Glo); format: cell-based; conditions: Mus musculus, BaF3, 72 hours
Outline: (§3)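 Ba/F3 cells carrying HER2 A775_G776insYVMA or G776delinsVC were seeded at 1,000 cells/well and dosed 24 h later at 0.01-10 μM (8 concentrations including 0). After 72 h, viability was read as cellular ATP by CellTiter-Glo luminescence, and IC50 values were calculated from the 8-point curves.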

[3] = system: Ba/F3 HER2 A775_G776insYVMA; assay: as above; format: cell-based; conditions: Mus musculus, BaF3, 72 hours
Outline: as §3

EGFR del19 = EGFR del19 (Homo sapiens (Human), UniProt P00533, DEL746-750); assay: HTRF inhibitory activity against EGFR mutant enzyme (EGFR del19); format: biochemical; conditions: recombinant enzyme, 37° C. for 2 hours
Chain of EGFR del19 (P00533 other isoform, or with tags, fused parts or gaps del 1-668/del 746-750 limits assumed): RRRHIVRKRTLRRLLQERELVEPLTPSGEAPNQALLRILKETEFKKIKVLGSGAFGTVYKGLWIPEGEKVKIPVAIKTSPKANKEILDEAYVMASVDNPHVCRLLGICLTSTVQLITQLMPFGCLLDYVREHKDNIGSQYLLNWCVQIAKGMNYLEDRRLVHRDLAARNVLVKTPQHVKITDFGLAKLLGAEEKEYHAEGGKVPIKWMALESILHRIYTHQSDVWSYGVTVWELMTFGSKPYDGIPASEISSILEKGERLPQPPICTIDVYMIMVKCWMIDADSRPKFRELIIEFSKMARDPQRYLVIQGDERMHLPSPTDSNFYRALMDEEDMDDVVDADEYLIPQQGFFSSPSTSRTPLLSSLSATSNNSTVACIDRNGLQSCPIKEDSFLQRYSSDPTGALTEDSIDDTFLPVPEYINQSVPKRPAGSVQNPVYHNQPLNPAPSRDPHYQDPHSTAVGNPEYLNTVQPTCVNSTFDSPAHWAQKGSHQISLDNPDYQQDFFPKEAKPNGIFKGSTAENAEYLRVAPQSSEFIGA
Outline: as §1

| Compound | IC50 (HER2 A775_G776insYVMA) [nM] | IC50 (EGFR A763_Y764insFHEA) [nM] | IC50 [1] [nM] | IC50 [2] [nM] | IC50 (Ba/F3 HER2 G776delinsVC) [nM] | IC50 [3] [nM] | IC50 (EGFR del19) [nM] |
| --- | --- | --- | --- | --- | --- | --- | --- |
| C=CC(=O)Nc1cc(Nc2ncc(Cl)c(Nc3ccccc3NS(C)(=O)=O)n2)c(OC)cc1N(C)CCNC(C)C [Example 24, N-(5-((5-chloro-4-((2-(methylsulfonamido)phenyl)amino)pyrimidin-2-yl)amino)-2-((2-(isopropylamino)ethyl)(methyl)amino)-4-methoxyphenyl)acrylamide] | 27 | 3 | > 100 | > 100 | 10 to 30 | > 100 | < 1 |
| C=CC(=O)Nc1cc(Nc2ncc(Cl)c(Nc3cccc(C)c3N(CC)S(C)(=O)=O)n2)c(OC)cc1N(C)CCN(C)C [Example 39, N-(5-((5-chloro-4-((2-(N-ethylmethylsulfonamido)-3-methylphenyl)amino)pyrimidin-2-yl)amino)-2-((2-(dimethylamino)ethyl)(methyl)amino)-4-methoxyphenyl)acrylamide] | 8 | < 1 | 30 to 50 | < 10 | < 10 | 30 to 50 | < 1 |
| C=CC(=O)Nc1cc(Nc2ncc(Cl)c(Nc3ccc(C)c(C)c3N(C)S(C)(=O)=O)n2)c(OC)cc1N(C)CCN(C)C [Example 43, N-(5-((5-chloro-4-((3,4-dimethyl-2-(N-methylmethylsulfonamido)phenyl)amino)pyrimidin-2-yl)amino)-2-((2-(dimethylamino)ethyl)(methyl)amino)-4-methoxyphenyl)acrylamide] | 8 | < 1 | 50 to 100 | < 10 | < 10 | 30 to 50 | < 1 |
| C=CC(=O)Nc1cc(Nc2ncc(Cl)c(Nc3ccccc3N(C)S(=O)(=O)CC)n2)c(OC)cc1N(C)CCN(C)C [Example 30, N-(5-((5-chloro-4-((2-(N-methylethylsulfonamido)phenyl)amino)pyrimidin-2-yl)amino)-2-((2-(dimethylamino)ethyl)(methyl)amino)-4-methoxyphenyl)acrylamide] | 4 | < 1 | 30 to 50 | < 10 | < 10 | 30 to 50 | < 1 |
| C=CC(=O)Nc1cc(Nc2ncc(Cl)c(Nc3ccccc3NS(C)(=O)=O)n2)c(OC)cc1OCCN1CCCC1 [Example 22, N-(5-((5-chloro-4-((2-(methylsulfonamido)phenyl)amino)pyrimidin-2-yl)amino)-4-methoxy-2-(2-(pyrrolidin-1-yl)ethoxy)phenyl)acrylamide] | 22 | 3 | > 100 | > 100 | 10 to 30 | > 100 | < 1 |
| C=CC(=O)Nc1cc(Nc2ncc(Cl)c(Nc3cccc(C)c3N(C)S(C)(=O)=O)n2)c(OC)cc1N(C)CCN(C)C [Example 38, N-(5-((5-chloro-4-((3-methyl-2-(N-methylmethylsulfonamido)phenyl)amino)pyrimidin-2-yl)amino)-2-((2-(dimethylamino)ethyl)(methyl)amino)-4-methoxyphenyl)acrylamide] | 14 | 2 | 30 to 50 | 30 to 50 | < 10 | 30 to 50 | < 1 |
| C=CC(=O)Nc1cc(Nc2ncc(Cl)c(Nc3cccc(Cl)c3N(C)S(C)(=O)=O)n2)c(OC)cc1N(C)CCN(C)C [Example 35, N-(5-((5-chloro-4-((3-chloro-2-(N-methylmethylsulfonamido)phenyl)amino)pyrimidin-2-yl)amino)-2-((2-(dimethylamino)ethyl)(methyl)amino)-4-methoxyphenyl)acrylamide] | 27 | 3 | 30 to 50 | 30 to 50 | < 10 | 50 to 100 | < 1 |

Results, then the compound that gave them:

| IC50 (HER2 A775_G776insYVMA) [nM] | IC50 (EGFR A763_Y764insFHEA) [nM] | IC50 [1] [nM] | IC50 [2] [nM] | IC50 (Ba/F3 HER2 G776delinsVC) [nM] | IC50 [3] [nM] | IC50 (EGFR del19) [nM] | Compound |
| --- | --- | --- | --- | --- | --- | --- | --- |
| 292 | 22 | 10 to 30 | 10 to 30 | < 10 | > 100 | 4 | C=CC(=O)Nc1cc(Nc2ncc(Cl)c(Nc3cccc4c3N(C(=O)CC)CCC4)n2)c(OC)cc1N(C)CCN(C)C [Example 94, N-(5-((5-chloro-4-((1-propionyl-1,2,3,4-tetrahydroquinolin-8-yl)amino)pyrimidin-2-yl)amino)-2-((2-(dimethylamino)ethyl)(methyl)amino)-4-methoxyphenyl)acrylamide] |
| 8 | < 1 | < 10 | < 10 | < 10 | < 10 | < 1 | C=CC(=O)Nc1cc(Nc2ncc(Cl)c(Nc3ccc(C)cc3N(C)S(C)(=O)=O)n2)c(OC)cc1N(C)CCN(C)C [Example 45, N-(5-((5-chloro-4-((4-methyl-2-(N-methylmethylsulfonamido)phenyl)amino)pyrimidin-2-yl)amino)-2-((2-(dimethylamino)ethyl)(methyl)amino)-4-methoxyphenyl)acrylamide] |
| 19 | 3 | 10 to 30 | 10 to 30 | < 10 | 10 to 30 | 1 | C=CC(=O)Nc1cc(Nc2ncc(C#N)c(Nc3cccc4c3N(C(C)=O)CC4)n2)c(OC)cc1N(C)CCN(C)C [Example 99, N-(5-((4-((1-acetylindolin-7-yl)amino)-5-cyanopyrimidin-2-yl)amino)-2-((2-(dimethylamino)ethyl)(methyl)amino)-4-methoxyphenyl)acrylamide] |
| 2 | < 1 | < 10 | 30 to 50 | 30 to 50 | < 10 | < 1 | C=CC(=O)Nc1cc(Nc2ncc(Cl)c(Nc3ccc(C)cc3NS(C)(=O)=O)n2)c(OC)cc1N(C)CCN(C)C [Example 46, N-(5-((5-chloro-4-((4-methyl-2-(methylsulfonamido)phenyl)amino)pyrimidin-2-yl)amino)-2-((2-(dimethylamino)ethyl)(methyl)amino)-4-methoxyphenyl)acrylamide] |
| 54 | 11 | 10 to 30 | 10 to 30 | < 10 | 30 to 50 | 2 | C=CC(=O)Nc1cc(Nc2ncc(Cl)c(Nc3cccc4c3N(C(C)=O)CCC4)n2)c(OC)cc1N(C)CCN(C)C [Example 95, N-(5-((4-((1-acetyl-1,2,3,4-tetrahydroquinolin-8-yl)amino)-5-chloropyrimidin-2-yl)amino)-2-((2-(dimethylamino)ethyl)(methyl)amino)-4-methoxyphenyl)acrylamide] |
| 14 | 2 | 10 to 30 | 10 to 30 | < 10 | 30 to 50 | < 1 | C=CC(=O)Nc1cc(Nc2ncc(Cl)c(Nc3ccc(C)cc3NC(C)=O)n2)c(OC)cc1N(C)CCN(C)C [Example 88, N-(5-((4-((2-acetamido-4-methylphenyl)amino)-5-chloropyrimidin-2-yl)amino)-2-((2-(dimethylamino)ethyl)(methyl)amino)-4-methoxyphenyl)acrylamide] |
| < 1 | < 1 | < 10 | < 10 | < 10 | < 10 | < 1 | C=CC(=O)Nc1cc(Nc2ncc(Cl)c(Nc3cccc4c3N(S(=O)(=O)CC)CC4)n2)c(OC)cc1N(C)CCN(C)C [Example 56, N-(5-((5-chloro-4-((1-(ethylsulfonyl)indolin-7-yl)amino)pyrimidin-2-yl)amino)-2-((2-(dimethylamino)ethyl)(methyl)amino)-4-methoxyphenyl)acrylamide] |
| 479 | 77 | 30 to 50 | 30 to 50 | 10 to 30 | > 100 | 20 | C=CC(=O)Nc1cc(Nc2ncc(Cl)c(Nc3ccccc3N(C)C(C)=O)n2)c(OC)cc1N(C)CCN(C)C [Example 89, N-(5-((5-chloro-4-((2-(N-methylacetamido)phenyl)amino)pyrimidin-2-yl)amino)-2-((2-(dimethylamino)ethyl)(methyl)amino)-4-methoxyphenyl)acrylamide] |
| < 1 | < 1 | 50 to 100 | 50 to 100 | 50 to 100 | 50 to 100 | < 1 | C=CC(=O)Nc1cc(Nc2ncc(Cl)c(Nc3cccc4c3N(S(C)(=O)=O)CC4)n2)c(OC)cc1N(C)CCNC [Example 57, N-(5-((5-chloro-4-((1-(methylsulfonyl)indolin-7-yl)amino)pyrimidin-2-yl)amino)-4-methoxy-2-(methyl(2-(methylamino)ethyl)amino)phenyl)acrylamide] |
